Data as given in PubChem BioAssay (NCI).
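How tested: cells in 96-well plates exposed to compound for 48 hours at five concentrations. GI50 = concentration required for 50% inhibition of growth. At the TGI there is no net growth.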

Assays:
Test in all cases: NCI tumour cell line growth inhibition, 48 h
786-0 renal = tested on: 786-0 renal
A498 renal = tested on: A498 renal
A549 NSCLC = tested on: A549 NSCLC
ACHN renal = tested on: ACHN renal
BT-549 breast = tested on: BT-549 breast
CAKI-1 renal = tested on: CAKI-1 renal
COLO 205 colon = tested on: COLO 205 colon
DU-145 prostate = tested on: DU-145 prostate
EKVX NSCLC = tested on: EKVX NSCLC
HCC-2998 colon = tested on: HCC-2998 colon
HCT-116 colon = tested on: HCT-116 colon
HCT-15 colon = tested on: HCT-15 colon
HL-60(TB) leukemia = tested on: HL-60(TB) leukemia
HOP-62 NSCLC = tested on: HOP-62 NSCLC
HOP-92 NSCLC = tested on: HOP-92 NSCLC
HS 578T breast = tested on: HS 578T breast
HT29 colon = tested on: HT29 colon
IGROV1 ovarian = tested on: IGROV1 ovarian
KM12 colon = tested on: KM12 colon
LOX IMVI melanoma = tested on: LOX IMVI melanoma
M14 melanoma = tested on: M14 melanoma
MALME-3M melanoma = tested on: MALME-3M melanoma
MCF7 breast = tested on: MCF7 breast
MDA-MB-231 breast = tested on: MDA-MB-231 breast
MDA-MB-435 = tested on: MDA-MB-435
MOLT-4 leukemia = tested on: MOLT-4 leukemia
NCI-H226 lung = tested on: NCI-H226 lung
NCI-H23 lung = tested on: NCI-H23 lung
NCI-H460 lung = tested on: NCI-H460 lung
NCI-H522 lung = tested on: NCI-H522 lung
NCI/ADR-RES ovarian = tested on: NCI/ADR-RES ovarian
OVCAR-3 ovarian = tested on: OVCAR-3 ovarian
OVCAR-4 ovarian = tested on: OVCAR-4 ovarian
OVCAR-5 ovarian = tested on: OVCAR-5 ovarian
OVCAR-8 ovarian = tested on: OVCAR-8 ovarian
PC-3 prostate = tested on: PC-3 prostate
RXF 393 renal = tested on: RXF 393 renal
SF-268 CNS = tested on: SF-268 CNS
SF-295 CNS = tested on: SF-295 CNS
SF-539 CNS = tested on: SF-539 CNS
SK-MEL-2 melanoma = tested on: SK-MEL-2 melanoma
SK-MEL-28 melanoma = tested on: SK-MEL-28 melanoma
SK-MEL-5 melanoma = tested on: SK-MEL-5 melanoma
SK-OV-3 ovarian = tested on: SK-OV-3 ovarian
SN12C renal = tested on: SN12C renal
SNB-19 CNS = tested on: SNB-19 CNS
SNB-75 CNS = tested on: SNB-75 CNS
SR leukemia = tested on: SR leukemia
SW-620 colon = tested on: SW-620 colon
T-47D breast = tested on: T-47D breast
TK-10 renal = tested on: TK-10 renal
U251 CNS = tested on: U251 CNS
UACC-257 melanoma = tested on: UACC-257 melanoma
UACC-62 melanoma = tested on: UACC-62 melanoma
UO-31 renal = tested on: UO-31 renal

## Cc1ccc(/C=C/C(=O)c2ccc(F)cc2)s1
786-0 renal
  GI50: 3.41 µM
  TGI: 14.1 µM
A498 renal
  GI50: 2.69 µM
  TGI: 11.1 µM
A549 NSCLC
  GI50: 4.22 µM
  TGI: 17.6 µM
ACHN renal
  GI50: 2.26 µM
  TGI: 4.52 µM
BT-549 breast
  GI50: 3.02 µM
  TGI: 8.49 µM
CAKI-1 renal
  GI50: 1.78 µM
  TGI: 3.72 µM
COLO 205 colon
  GI50: 6.07 µM
  TGI: 19.9 µM
DU-145 prostate
  GI50: 3.41 µM
  TGI: 11.2 µM
EKVX NSCLC
  GI50: 5.83 µM
  TGI: 20.3 µM
HCC-2998 colon
  GI50: 2.2 µM
  TGI: 5.14 µM
HCT-116 colon
  GI50: 1.86 µM
  TGI: 3.37 µM
HCT-15 colon
  GI50: 4.14 µM
  TGI: 18.4 µM
HL-60(TB) leukemia
  GI50: 2.26 µM
  TGI: 7.22 µM
HOP-62 NSCLC
  GI50: 14.2 µM
  TGI: 28 µM
HOP-92 NSCLC
  GI50: 1.6 µM
  TGI: 3.4 µM
HS 578T breast
  GI50: 3.35 µM
  TGI: 9.7 µM
HT29 colon
  GI50: 2.09 µM
  TGI: 4.11 µM
IGROV1 ovarian
  GI50: 2.17 µM
  TGI: 5.25 µM
KM12 colon
  GI50: 2.75 µM
  TGI: 7.52 µM
LOX IMVI melanoma
  GI50: 1.87 µM
  TGI: 3.59 µM
M14 melanoma
  GI50: 7.89 µM
  TGI: 26.7 µM
MALME-3M melanoma
  GI50: 1.74 µM
  TGI: 3.74 µM
MCF7 breast
  GI50: 3.66 µM
  TGI: 16.9 µM
MDA-MB-231 breast
  GI50: 10.2 µM
  TGI: 24 µM
MDA-MB-435
  GI50: 1.77 µM
  TGI: 3.7 µM
MOLT-4 leukemia
  GI50: 3.39 µM
  TGI: > 100 µM
NCI-H226 lung
  GI50: 10.4 µM
  TGI: 24 µM
NCI-H23 lung
  GI50: 3.67 µM
  TGI: 16.5 µM
NCI-H460 lung
  GI50: 3.24 µM
  TGI: 10.6 µM
NCI-H522 lung
  GI50: 1.71 µM
  TGI: 3.57 µM
NCI/ADR-RES ovarian
  GI50: 3.68 µM
  TGI: 17.6 µM
OVCAR-3 ovarian
  GI50: 1.8 µM
  TGI: 3.29 µM
OVCAR-4 ovarian
  GI50: 11.7 µM
  TGI: 29.8 µM
OVCAR-5 ovarian
  GI50: 5.39 µM
  TGI: 18.6 µM
OVCAR-8 ovarian
  GI50: 2.74 µM
  TGI: 8.72 µM
PC-3 prostate
  GI50: 2.64 µM
  TGI: 7.11 µM
RXF 393 renal
  GI50: 1.82 µM
  TGI: 4.04 µM
SF-268 CNS
  GI50: 2.19 µM
  TGI: 4.91 µM
SF-295 CNS
  GI50: 5.38 µM
  TGI: 18.8 µM
SF-539 CNS
  GI50: 3.56 µM
  TGI: 10.2 µM
SK-MEL-2 melanoma
  GI50: 4.35 µM
  TGI: 15.6 µM
SK-MEL-28 melanoma
  GI50: 2.94 µM
  TGI: 7.31 µM
SK-MEL-5 melanoma
  GI50: 12.2 µM
  TGI: 24.9 µM
SK-OV-3 ovarian
  GI50: 15.4 µM
  TGI: 37.9 µM
SN12C renal
  GI50: 6.47 µM
  TGI: 19.8 µM
SNB-19 CNS
  GI50: 11.3 µM
  TGI: 24.4 µM
SNB-75 CNS
  GI50: 13.4 µM
  TGI: 26.5 µM
SR leukemia
  GI50: 2.86 µM
  TGI: 20 µM
SW-620 colon
  GI50: 1.96 µM
  TGI: 3.99 µM
T-47D breast
  GI50: 4.71 µM
  TGI: 23.5 µM
TK-10 renal
  GI50: 1.84 µM
  TGI: 4.33 µM
U251 CNS
  GI50: 2.85 µM
  TGI: 11.2 µM
UACC-257 melanoma
  GI50: 3.33 µM
  TGI: 14.1 µM
UACC-62 melanoma
  GI50: 6.86 µM
  TGI: 21.3 µM
UO-31 renal
  GI50: 1.69 µM
  TGI: 4.04 µM
